Test results taken from paper PMC12445698 (2025).

How the values were obtained:
Assay in all cases: ITC
Conditions in all cases: 50 mM KCl, 10 mM MgCl2; 40 mM HEPES pH 7.4
[1] = system: I39C (RNA, riboswitch) GGGUUGUAUAAGCUCGUUAAUUUGGAAUGAGCGUAUCUACCAGGCAACCGUAAAUUGCCCCAGGCUACAAUC
[2] = system: U38G-I39C (RNA, riboswitch) GGGUUGUAUAAGCUCGUUAAUUUGGAAUGAGCGUAUCGACCAGGCAACCGUAAAUUGCCCCAGGCUACAAUC
[3] = system: U38C (RNA, riboswitch) GGGUUGUAUAAGCUCGUUAAUUUGGAAUGAGCGUAUCCACAGGCAACCGUAAAUUGCCCCAGGCUACAAUC

SMILES | Kd [1] [µM] | Kd [2] [µM] | Kd [3] [µM]
O=c1[nH]c(=O)c2[nH]cnc2[nH]1 | 9.79 | 14.6 | –
Nc1nc2[nH]cnc2c(=O)[nH]1 | 0.0017 | – | 1.3
